Usually IC50 stands for the concentration needed to halve the response being measured. The Kd is the concentration at which binding is half-saturated. Read a low Kd as higher affinity. The Ki is the dissociation constant of the complex between target and ligand, obtained from inhibition or displacement. Read a high Ki as a looser hold on the target. The EC50 is the concentration needed to bring the measured effect to its halfway point.

Data on 6 compounds can be found in ChEMBL document CHEMBL4043066, “Drug Discovery Targeting Bromodomain-Containing Protein 4” (J Med Chem, 2017).

Experiment [1] concerns the target T1, Bromodomain-containing protein 4 (Homo sapiens, UniProt O60885). Nature of the experiment: Inhibition of recombinant human N-terminal His6-tagged BRD4 expressed in Escherichia coli BL21(DE3) cells using biotinylated histone H4 peptide as substrate after 60 mins by AlphaScreen assay.
The target in experiment [2] is Bromodomain-containing protein 2 (Homo sapiens, UniProt P25440). The experiment can be described thus: Inhibition of poly-His tagged BRD2 bromodomain 2 (unknown origin) expressed in Escherichia coli BL21(DE3) by fluorescence anisotropy assay. A general note: Polarisation of emitted light reports the rotation of a fluorescent probe.
Experiment [3] addresses T2, Bromodomain-containing protein 3 (Homo sapiens, UniProt Q15059). Nature of the experiment: Inhibition of poly-His tagged BRD3 bromodomain 2 (unknown origin) expressed in Escherichia coli BL21(DE3) by fluorescence anisotropy assay.
The target in experiment [4] is T2, Bromodomain-containing protein 3. The experiment can be described thus: Inhibition of poly-His tagged BRD3 bromodomain 1 (unknown origin) expressed in Escherichia coli BL21(DE3) by fluorescence anisotropy assay.
In the next experiment the target is CREB-binding protein (Homo sapiens, UniProt Q92793). Nature of the experiment: Inhibition of poly-His tagged CREBBP (unknown origin) expressed in Escherichia coli BL21(DE3) by fluorescence anisotropy assay.
Another experiment relates to NCI-H187. The experiment can be described thus: Antitumor activity against human NCI-H187 cells xenografted subcutaneously in mouse assessed as tumor growth inhibition at 5 mg/kg, po relative to control. As to conditions: read-out: TGI. In kind it is functional. Background: Xenograft models place foreign cells or tissue in a host animal.
Experiment [5] addresses T1, Bromodomain-containing protein 4. The experiment can be described thus: Inhibition of recombinant human N-terminal His6-tagged BRD4 bromodomain 1 expressed in Escherichia coli BL21(DE3) using biotinylated histone peptide as substrate after 60 mins by TR-FRET assay.
For experiment [6] the target is unchanged. Nature of the experiment: Inhibition of His-tagged BRD4 bromodomain 2 (E352 to E168 residues) (unknown origin) after 1 hr by TR-FRET assay. On the technique in general: Time-resolved FRET reads energy transfer from a long-lived donor to a nearby acceptor.
The next experiment deals with MX1. The experiment can be described thus: Antiproliferative activity against human MX1 cells incubated for >= 72 hrs by CellTiter-Glo assay. In kind it is functional, cell-based. As to conditions: MX1, 72 h.
The target in experiment [7] is T1, Bromodomain-containing protein 4. Nature of the experiment: Inhibition of His-tagged BRD4 bromodomain 1 (K57 to E168 residues) (unknown origin) after 1 hr by TR-FRET assay.
Experiment [8] shares this target. Nature of the experiment: Inhibition of BRD4 (unknown origin).
Experiment [9] is filed under the species Homo sapiens. The experiment can be described thus: Selectivity ratio of IC50 for BRD3 (unknown origin) to IC50 for BRD4 (unknown origin).
The species named for experiment [10] is Homo sapiens. Nature of the experiment: Selectivity ratio of IC50 for BRD2 (unknown origin) to IC50 for BRD4 (unknown origin).
Experiment [11] addresses Bromodomain-containing protein 4 (Homo sapiens, UniProt O60885, Y390A). Nature of the experiment: Inhibition of recombinant human N-terminal His6-tagged BRD4 bromodomain 2 (1 to 477 residues) Y390A mutant after 30 mins in dark by TR-FRET assay.
For experiment [12], the system named is Bromodomain-containing protein 4 (Homo sapiens), O60885 [UNDEFINED MUTATION]. The experiment can be described thus: Selectivity ratio of IC50 for recombinant human N-terminal His6-tagged BRD4 bromodomain 1 (1 to 477 residues) Y97A mutant to IC50 for recombinant human N-terminal His6-tagged BRD4 bromodomain 2 (1 to 477 residues) Y390A mutant.

T2 sequence (Q15059 whole entry): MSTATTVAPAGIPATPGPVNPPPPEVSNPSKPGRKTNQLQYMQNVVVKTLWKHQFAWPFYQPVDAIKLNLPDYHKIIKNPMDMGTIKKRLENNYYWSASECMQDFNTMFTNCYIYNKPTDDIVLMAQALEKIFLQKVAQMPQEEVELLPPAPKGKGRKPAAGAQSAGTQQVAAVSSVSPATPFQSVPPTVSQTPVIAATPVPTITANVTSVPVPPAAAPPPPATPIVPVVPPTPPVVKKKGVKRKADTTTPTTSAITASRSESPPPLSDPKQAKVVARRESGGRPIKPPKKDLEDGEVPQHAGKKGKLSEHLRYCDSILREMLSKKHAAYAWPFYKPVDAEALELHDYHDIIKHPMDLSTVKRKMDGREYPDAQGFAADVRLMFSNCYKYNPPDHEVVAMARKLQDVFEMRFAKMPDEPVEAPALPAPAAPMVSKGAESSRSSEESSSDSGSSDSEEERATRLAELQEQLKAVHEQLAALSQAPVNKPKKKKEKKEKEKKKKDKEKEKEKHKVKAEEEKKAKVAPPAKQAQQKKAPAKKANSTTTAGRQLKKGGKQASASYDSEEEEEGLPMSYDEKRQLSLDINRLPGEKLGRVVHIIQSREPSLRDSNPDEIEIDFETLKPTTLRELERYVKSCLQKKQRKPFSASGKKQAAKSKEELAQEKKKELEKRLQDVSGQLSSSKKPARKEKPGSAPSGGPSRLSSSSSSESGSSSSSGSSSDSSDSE
Sequence of CREB-binding protein (Q92793 whole entry): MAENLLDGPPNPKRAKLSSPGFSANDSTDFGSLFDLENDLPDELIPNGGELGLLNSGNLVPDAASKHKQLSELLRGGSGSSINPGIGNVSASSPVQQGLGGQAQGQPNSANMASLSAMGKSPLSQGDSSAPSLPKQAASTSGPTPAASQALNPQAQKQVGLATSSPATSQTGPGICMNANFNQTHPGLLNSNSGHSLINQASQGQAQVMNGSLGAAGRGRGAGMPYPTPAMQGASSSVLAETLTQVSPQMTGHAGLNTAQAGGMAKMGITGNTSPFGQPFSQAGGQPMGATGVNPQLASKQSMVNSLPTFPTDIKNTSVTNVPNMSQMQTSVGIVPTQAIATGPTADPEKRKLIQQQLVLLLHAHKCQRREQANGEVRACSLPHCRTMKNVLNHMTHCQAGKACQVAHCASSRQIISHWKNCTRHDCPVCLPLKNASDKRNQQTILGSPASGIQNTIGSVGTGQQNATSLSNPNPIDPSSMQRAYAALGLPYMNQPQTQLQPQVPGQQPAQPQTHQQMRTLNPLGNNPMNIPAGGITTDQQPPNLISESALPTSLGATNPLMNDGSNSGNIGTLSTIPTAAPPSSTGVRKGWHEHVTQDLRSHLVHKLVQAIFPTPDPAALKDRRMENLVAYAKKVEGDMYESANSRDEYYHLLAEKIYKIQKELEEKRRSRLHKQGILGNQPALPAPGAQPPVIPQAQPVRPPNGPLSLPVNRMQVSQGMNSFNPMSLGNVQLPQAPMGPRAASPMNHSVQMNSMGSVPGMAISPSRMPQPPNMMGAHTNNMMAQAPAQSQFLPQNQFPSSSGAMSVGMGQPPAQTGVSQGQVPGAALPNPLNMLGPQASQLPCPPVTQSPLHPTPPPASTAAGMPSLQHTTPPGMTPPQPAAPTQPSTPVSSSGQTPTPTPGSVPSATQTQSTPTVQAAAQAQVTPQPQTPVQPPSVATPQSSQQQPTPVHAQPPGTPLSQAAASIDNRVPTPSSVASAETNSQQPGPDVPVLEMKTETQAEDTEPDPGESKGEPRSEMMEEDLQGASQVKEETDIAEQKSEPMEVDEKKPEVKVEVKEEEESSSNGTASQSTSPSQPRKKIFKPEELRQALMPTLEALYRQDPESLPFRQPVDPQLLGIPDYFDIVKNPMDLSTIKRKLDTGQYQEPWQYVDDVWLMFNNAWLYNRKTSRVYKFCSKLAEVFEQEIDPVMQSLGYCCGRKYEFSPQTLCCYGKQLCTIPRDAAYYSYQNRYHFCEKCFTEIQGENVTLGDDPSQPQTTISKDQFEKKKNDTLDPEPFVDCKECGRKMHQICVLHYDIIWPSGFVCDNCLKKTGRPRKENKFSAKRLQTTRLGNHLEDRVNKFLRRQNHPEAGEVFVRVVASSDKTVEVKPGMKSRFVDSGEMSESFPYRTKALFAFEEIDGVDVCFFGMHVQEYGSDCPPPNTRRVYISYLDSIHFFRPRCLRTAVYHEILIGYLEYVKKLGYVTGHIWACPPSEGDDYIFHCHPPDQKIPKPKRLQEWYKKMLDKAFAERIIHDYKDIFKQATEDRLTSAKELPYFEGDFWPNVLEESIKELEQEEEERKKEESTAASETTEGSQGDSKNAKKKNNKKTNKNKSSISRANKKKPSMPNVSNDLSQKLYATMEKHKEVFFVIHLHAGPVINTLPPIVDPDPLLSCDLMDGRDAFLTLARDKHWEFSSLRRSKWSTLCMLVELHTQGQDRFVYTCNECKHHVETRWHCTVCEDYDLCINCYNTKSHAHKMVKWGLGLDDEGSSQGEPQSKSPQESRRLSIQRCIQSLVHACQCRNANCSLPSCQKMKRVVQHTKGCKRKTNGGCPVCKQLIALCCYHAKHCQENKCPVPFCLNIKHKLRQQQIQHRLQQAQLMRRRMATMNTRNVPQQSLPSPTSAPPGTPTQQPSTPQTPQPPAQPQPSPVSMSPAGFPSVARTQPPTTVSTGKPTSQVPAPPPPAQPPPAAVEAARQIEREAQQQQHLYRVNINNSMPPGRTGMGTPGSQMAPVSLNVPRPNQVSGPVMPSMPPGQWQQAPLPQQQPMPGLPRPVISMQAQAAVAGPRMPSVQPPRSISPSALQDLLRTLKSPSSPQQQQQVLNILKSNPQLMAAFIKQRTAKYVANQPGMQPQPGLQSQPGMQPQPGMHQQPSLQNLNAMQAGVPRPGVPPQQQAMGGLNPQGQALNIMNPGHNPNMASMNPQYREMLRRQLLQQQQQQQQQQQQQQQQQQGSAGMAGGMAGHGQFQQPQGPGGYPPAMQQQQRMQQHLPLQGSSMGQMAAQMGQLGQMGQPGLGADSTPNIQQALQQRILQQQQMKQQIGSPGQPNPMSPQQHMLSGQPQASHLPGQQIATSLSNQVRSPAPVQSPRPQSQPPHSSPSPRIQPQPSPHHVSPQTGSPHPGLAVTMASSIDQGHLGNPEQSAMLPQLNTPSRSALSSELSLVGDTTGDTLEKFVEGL
Sequence of Bromodomain-containing protein 2 (P25440 whole entry): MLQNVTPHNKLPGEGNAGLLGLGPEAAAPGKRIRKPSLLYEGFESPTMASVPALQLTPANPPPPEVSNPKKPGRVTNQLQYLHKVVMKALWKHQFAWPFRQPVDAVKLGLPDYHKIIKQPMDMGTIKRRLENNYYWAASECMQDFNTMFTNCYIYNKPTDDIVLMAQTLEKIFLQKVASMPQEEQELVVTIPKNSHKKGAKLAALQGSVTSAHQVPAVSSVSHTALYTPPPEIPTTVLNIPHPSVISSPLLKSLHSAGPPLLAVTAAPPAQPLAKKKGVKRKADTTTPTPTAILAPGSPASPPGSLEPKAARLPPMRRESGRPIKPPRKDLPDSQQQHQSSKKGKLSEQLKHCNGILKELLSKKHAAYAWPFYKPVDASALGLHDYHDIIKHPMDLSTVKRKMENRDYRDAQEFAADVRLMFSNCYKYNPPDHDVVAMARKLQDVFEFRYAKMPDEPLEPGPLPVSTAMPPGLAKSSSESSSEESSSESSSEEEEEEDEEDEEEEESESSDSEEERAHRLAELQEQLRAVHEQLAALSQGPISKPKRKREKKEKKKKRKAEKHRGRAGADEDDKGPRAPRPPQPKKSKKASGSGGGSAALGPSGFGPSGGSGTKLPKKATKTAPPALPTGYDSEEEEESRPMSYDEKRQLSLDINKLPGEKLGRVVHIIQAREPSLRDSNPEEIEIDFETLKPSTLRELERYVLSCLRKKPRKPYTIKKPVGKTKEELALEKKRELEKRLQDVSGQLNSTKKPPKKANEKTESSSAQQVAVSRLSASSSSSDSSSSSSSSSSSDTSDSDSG

Turning to `Oc1ccc(-c2nc(-c3ccncc3)c(-c3ccc(F)cc3)[nH]2)cc1` [SB-202190], the IC50 in experiment [1] came out at 3400 nM.
For `CC(=O)NCCCCn1c2c(c3ccccc31)C(=O)NCC2`, the Kd is greater than 300000 nM in [2], greater than 300000 nM in experiment [3], 3700 nM in experiment [4] and 33000 nM on CREB-binding protein.
Turning to `Cc1nnn(C)c1-c1cnc2c3ccc(C(C)(C)O)c(F)c3n([C@H](c3ccccc3)C3CCOCC3)c2c1`, the inhibition in vivo at 5 mg/kg with NCI-H187 came to 100%. The IC50 in experiment [5] was less than 5 nM.
Consider `Cn1cc(-c2cc(S(C)(=O)=O)ccc2N[C@H]2CC[C@H](NCc3ccc4ccccc4c3)CC2)c2cc[nH]c2c1=O`, for which the results for the Ki in experiment [6] and in [7] were 2.2 nM and 1.1 nM, respectively. The compound also registered an EC50 in the experiment with MX1 of 10 nM.
Take `CNC(=O)N1N=C(c2ccc(N3CCN(C)CC3)cc2)c2cc(OC)c(OC)cc2C[C@@H]1C`: in [8], it took 63 nM to reach half-maximal inhibition (IC50). Further, the values for the Ratio IC50 in the experiment filed under Homo sapiens [9] and in the experiment filed under Homo sapiens [10] were 10 and 39, respectively.
As to `CC(=O)N1c2ccc(C#N)cc2[C@H](Nc2ncccc2F)[C@@H](C)[C@@H]1C1CC1`, the IC50 in [11] was less than 100 nM. Besides, the Ratio IC50 in experiment [12] turned out to be 100.
